The subject of assay [1] is LPS-induced lung neutrophils. Description: Inhibition of LPS-induced lung neutrophilia in rats after intratracheal dosing. In kind it is in vivo. Particulars: male CD Sprague-Dawley rats; single intratracheal dose 4 hours before nebulised LPS; BAL 4 hours after LPS. Here is the method: The pharmacological activity may be assessed in in vivo models of lung inflammation such as the one described below. The primary objective of this procedure was to determine the anti-inflammatory activity of the compounds of formula (I), when administered directly into the lungs via the trachea.
Test compounds were dissolved, or prepared as fine suspensions, in phosphate buffered saline containing 0.5% (w/v) Tween-80 to provide a range of dose levels. Male CD Sprague-Dawley rats (300-450 g) were randomised to study groups of n=6 and then briefly anaesthetised in an anaesthetic chamber with 5% Isoflurane in 3 l/min O2. One of the test compound formulations or dose vehicle (100 μl) was injected directly into the trachea of each anaesthetised rat using a Hamilton syringe. The animals were then allowed to recover from the anaesthetic. Dependent on the study design, animals received either a single dose of compound or were treated once daily on 4 successive days. Four hours after the dosing (or 4 hours after the final dose in repeat dose studies) the rats were placed into a chamber (300×300×450 mm), connected to an ultrasonic nebuliser and a small animal rodent ventilator set to the maximum tidal volume and rate (5 ml, 160 strokes/min). 10 ml of 1 mg/ml LPS (Sigma-Aldrich, L2630) dissolved in saline, pre-warmed to 37° C., was nebulised into the chamber. After 15 minutes the ventilator and nebuliser were turned off and the animals remained in the chamber to breathe the mist for a further 15 minutes before being returned to the home cage.
Four hours after the end of the LPS treatment the animals were terminally anaesthetised with 1 ml/kg Pentoject IP. The trachea was cannulated and the lungs lavaged with 4×2.5 ml PBS containing 2.6 mM EDTA and the lavage fluid collected. 1 ml bronchioalveolar lavage (BAL) was added to 125 μl of 40% bovine serum albumen (BSA) and the cellular count determined using an Advia 120 haematology system (Siemens). In repeat dose studies, bodyweights and weights of adrenal glands and thymus were also determined as these are known to decrease in response to glucocorticoid agonist exposure and have been used to assess the systemic effects of glucocorticoid agonists. In some repeat dose experiments, a terminal blood sample was collected from each rat, serum and plasma prepared, and concentrations of corticosterone in serum and ACTH in plasma were determined as additional markers of systemic glucocorticoid agonist effect. In some studies a known glucocorticoid agonist, fluticasone propionate, was administered to separate groups of rats as a positive control.
Separate dose response curves were constructed, for inhibition of LPS-induced lung neutrophils, and each marker of glucocorticoid agonist systemic effect. Half maximal effect doses (ED50) values were estimated from the fitted curves. The ED50 values for effect on systemic markers of glucocorticoid agonist activity were also divided by the ED50 for inhibition of lung neutrophilia in order to determine values for therapeutic index (TI).

The subject of assay [2] is TNF-α release from LPS stimulated isolated human peripheral mononuclear cells (PBMC). Briefly: Inhibition of TNF-α release from LPS stimulated isolated human PBMC. In kind it is cell-based. The following applies: 1 h preincubation, 18 hours after LPS, ELISA. Here is the method:
(§1) The anti-inflammatory activity of the compounds against human leukocytes in vitro was also evaluated by determining inhibition of tumour necrosis factor-α (TNF-α) release from lipopolysaccharide (LPS) stimulated human whole blood (WB) and isolated human peripheral mononuclear cells (PBMC).
(§2) Peripheral venous blood from healthy, non-medicated donors was collected using ethylenediaminetetraacetic acid (EDTA) as the anti-coagulant. For PBMC preparation, samples of blood were diluted 1:1 with sterile phosphate buffered saline and then separated using ACCUSPIN™ System-Histopaque®-1077 tubes (Sigma-Aldrich, St Louis, Mo.), centrifuged at 400 g for 35 minutes. Buffy coat cells were removed into PBS, centrifuged at 200 g for 10 minutes and re-suspended in PBMC assay buffer (Hanks Balanced Salt Solution, 0.28% [w/v] 4-[2-hydroxyethyl]-1-piperazineethanesulfonic acid [HEPES], 0.01% [w/v] low-endotoxin bovine serum albumin [BSA]. A differential white cell count was performed and PBMC's diluted to 1×10^6 lymphocytes per ml in PBMC assay buffer.
(§3) Test compounds were dissolved in DMSO and diluted in PBMC assay buffer (final DMSO concentration 1%) to cover an appropriate concentration range, e.g 0.001 nM to 10000 nM. Samples of test compound solution or vehicle (20 μl) were added into 96-well tissue culture treated plates (Corning) and PBMC (160 μl) or WB (160 μl) added to each well. The assay mixtures were incubated at 37° C. for 1 h in a humidified incubator containing an atmosphere of air supplemented with 5% CO2 before adding LPS (20 μl of 100 ng/ml for PBMC or 1 μg/ml for WB). Plates were returned to the incubator for a further 18 hours, and then centrifuged before recovery of samples of supernatant. TNF-α in the samples was determined using an enzyme-linked immunosorbent assay (ELISA) (Invitrogen kit no CHC-1754; Invitrogen Carlsbad, Calif.) and following the manufacturers instructions. Dose response curves were constructed from which IC50 values were calculated.

Assay [3] has as its system TNF-α release from LPS stimulated human whole blood (WB). Briefly: Inhibition of TNF-α release from LPS stimulated human whole blood. Particulars: 1 h preincubation, 18 hours after LPS, ELISA. In kind it is cell-based. Here is the method: as §1, §2, §3

Regarding `C[S+]([O-])c1cccc(Sc2ccc([C@@H]3O[C@@H]4C[C@H]5[C@@H]6C[C@H](F)C7=CC(=O)C=C[C@]7(C)[C@@]6(F)[C@@H](O)C[C@]5(C)[C@]4(C(=O)CO)O3)cc2)c1` (stereo partly drawn) [Example 4, (4aS,4bR,5S,6aS,6bS,8R,9aR,10aS,10bS,12S)-4b,12-difluoro-6b-glycoloyl-5-hydroxy-4a,6a-dimethyl-8-(4-{[3-(methylsulfinyl)phenyl]thio}phenyl)-4a,4b,5,6,6a,6b,9a,10,10a,10b,11,12-dodecahydro-2H-naphtho[2′,1′:4.5]indeno[1,2-d][1,3]dioxol-2-one], in assay [1], the “ED50 for inhibition of lung neutrophilia” value was found to be 2.00 µg. The IC50 is 0.059 nM in assay [2] and 40 nM in assay [3].
On to `CSc1cccc(Sc2ccc([C@@H]3O[C@@H]4C[C@H]5[C@@H]6C[C@H](F)C7=CC(=O)C=C[C@]7(C)[C@@]6(F)[C@@H](O)C[C@]5(C)[C@]4(C(=O)CO)O3)cc2)c1` [Example 2, (4aS,4bR,5S,6aS,6bS,8R,9aR,10aS,10bS,12S)-4b,12-difluoro-6b-glycoloyl-5-hydroxy-4a 0.6a-dimethyl-8-(4-{[3-(methylthio)phenyl]thio}phenyl)-4a,4b,5,6,6a,6b,9a,10,10a,10b,11.,12-dodecahydro-2H-naphtho[2′,1′:4,5]indeno[1,2-d][1,3]dioxol-2-one], for which the “ED50 for inhibition of lung neutrophilia” value in assay [1] was 0.18 µg. The IC50 turned out to be 0.092 nM in assay [2] and 49 nM in assay [3].
The matching figures for `C[C@]12C=CC(=O)C=C1[C@@H](F)C[C@H]1[C@@H]3C[C@H]4O[C@@H](c5ccc(Cc6ccccc6)cc5)O[C@@]4(C(=O)CO)[C@@]3(C)C[C@H](O)[C@@]12F` [Example 1, (4aS,4bR,5S,6aS,6bS,8R,9aR,10aS,10bS,12S)-8-(4-Benzylphenyl)-4b,12-difluoro-6b-glycoloyl-5-hydroxy-4a,6a-dimethyl-4a,4b,5,6,6a,6b,9a,10,10a,10b,11,12-dodecahydro-2H-naphtho[2′,1′:4,5]indeno[1,2-d][1,3]dioxol-2-one]: 0.27 µg, 0.098 nM and 17 nM.
For the molecule `C[C@]12C=CC(=O)C=C1[C@@H](F)C[C@H]1[C@@H]3C[C@H]4O[C@@H](c5ccc(CSc6ccc(O)c(Cl)c6)cc5)O[C@@]4(C(=O)CO)[C@@]3(C)C[C@H](O)[C@@]12F` [Example 5, (4aS,4bR,5S,6aS,6bS,8R,9aR,10aS,10bS,12S)-8-(4-{[(3-chloro-4-hydroxyphenyl)thio]methyl}phenyl)-4-b,12-difluoro-6b-glycoloyl-5-hydroxy-4a,6a-dimethyl-4a,4b,5,6,6a,6b,9a,10,10a,10b. 11,12-dodecahydro-2H-naphtho[2′,1′:4.5]indeno[1,2-d][1,3]dioxol-2-one], the “ED50 for inhibition of lung neutrophilia” value in assay [1] stood at 3.6 µg. The values for the IC50 in assay [2] and in assay [3] were 0.032 nM and 8.73 nM, respectively.
For `C[C@]12C=CC(=O)C=C1[C@@H](F)C[C@H]1[C@@H]3C[C@H]4O[C@@H](c5ccc(CSc6ccc(O)cc6)cc5)O[C@@]4(C(=O)CO)[C@@]3(C)C[C@H](O)[C@@]12F` [Example 3, (4aS,4bR,5S,6aS,6bS,8R,9aR,10aS,10bS,12S)-4b,12-Difluoro-6b-glycoloyl-5-hydroxy-8-(4-{[(4-hydroxyphenyl)thio]methyl}phenyl)-4a 0.6a-dimethyl-4a,4b,5,6,6a,6b,9a,10,10a,10b,11,12-dodecahydro-2H-naphtho[2′,1′:4,5]indeno[1,2-d][1,3]dioxol-2-one] the same measures were 0.45 µg, 0.061 nM and 24 nM.

(Values after US8822439B2, “Glucocorticoid receptor agonists” (Pfizer Inc., priority 2007, dated 2014).)
